# Assay results: the supplement of paper PMC10331698
# ± gives the standard deviation of the averaged measurements.
# Columns and labels:
# Experiment in all cases: level (log10 ratio to DMSO vehicle control); higher = higher biomarker level / cell amount than vehicle control
# [1] = compound: NS(=O)(=O)C(F)(F)C(F)(F)C(F)(F)C(F)(F)C(F)(F)C(F)(F)F [Perfluorohexanesulfonamide]; settings: in DMSO
# Experimental: (§1)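 BioMAP Diversity Plus panel of 12 human primary cell co-culture systems (3C, 4H, LPS, SAg, BT, BF4T, BE3C, CASM3C, HDF3CGF, KF3CT, MyoF, Mphg). Compounds were added 1 h before stimulation and left for 24 h (MyoF 48 h; BT 72 h for soluble read-outs or 6 d for IgG). Biomarkers were read by ELISA, cytotoxicity by SRB, PBMC viability and proliferation by Alamar Blue. Each well value was divided by the mean of 8 DMSO control wells on the same plate and log10 transformed; duplicate blinded samples were tested at 4 concentrations.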
# Nonafluoropentanamide = compound: NC(=O)C(F)(F)C(F)(F)C(F)(F)C(F)(F)F [Nonafluoropentanamide]; settings: in DMSO
# Experimental: as §1
# [2] = compound: COC(=O)C(F)(F)C(F)(F)OC(F)(C(F)(F)F)C(F)(F)OC(F)=C(F)F [Methyl perfluoro(3-(1-ethenyloxypropan-2-yloxy)propanoate)]; settings: in DMSO
# Experimental: as §1
# [3] = compound: C=CC(=O)OCC(F)(F)C(F)(F)C(F)(F)COC(=O)C=C [1H,1H,5H,5H-Perfluoro-1,5-pentanediol diacrylate]; settings: 6700 nM; in DMSO
# Experimental: as §1
# [4] = compound: NC(=O)C(F)(F)C(F)(F)C(F)(F)C(F)F; settings: in DMSO
# Experimental: as §1
# [5] = compound: FC(F)(F)C(F)(F)C(F)(F)C(F)(F)C(F)(F)C(F)(F)C(F)(F)I [1-Iodopentadecafluoroheptane]; settings: in DMSO
# Experimental: as §1
# [6] = compound: FC(F)(F)C(F)(F)C(F)(F)CC1CO1 [1H,1H-Heptafluorobutyl epoxide]; settings: in DMSO
# Experimental: as §1
# [7] = compound: FC(F)(F)C(F)(F)CNCC(F)(F)C(F)(F)F [Bis(1H,1H-perfluoropropyl)amine]; settings: in DMSO
# Experimental: as §1
# [8] = compound: O=C(O)C=CC(F)(C(F)(F)F)C(F)(F)F [3-(Perfluoroisopropyl)-2-propenoic acid]; settings: in DMSO
# Experimental: as §1
# [9] = compound: O=S(=O)(Cl)C(F)(F)C(F)(F)C(F)(F)C(F)(F)C(F)(F)C(F)(F)C(F)(F)C(F)(F)F [Perfluoro-1-octanesulfonyl chloride]; settings: in DMSO
# Experimental: as §1
# [10] = compound: FC(F)(F)C(F)(F)C(F)(F)C(F)(F)C(F)(F)C(F)(F)CC1CO1 [3-(Perfluorohexyl)-1,2-epoxypropane]; settings: in DMSO
# Experimental: as §1
# Octafluoroadipamide = compound: NC(=O)C(F)(F)C(F)(F)C(F)(F)C(F)(F)C(N)=O [Octafluoroadipamide]; settings: in DMSO
# Experimental: as §1
# [11] = compound: O=S(=O)(O)CCC(F)(F)C(F)(F)C(F)(F)C(F)(F)C(F)(F)C(F)(F)F [6:2 Fluorotelomer sulfonic acid]; settings: in DMSO
# Experimental: as §1
# [12] = compound: C=C(C)C(=O)OCCC(F)(F)C(F)(F)C(F)(F)C(F)(F)C(F)(F)C(F)(F)F [6:2 Fluorotelomer methacrylate]; settings: in DMSO
# Experimental: as §1
# [13] = compound: O=S(=O)(O)C(F)(F)C(F)(F)C(F)(F)C(F)(F)C(F)(F)C(F)(F)C(F)(F)C(F)(F)C(F)(F)C(F)(F)F [Sodium perfluorodecanesulfonate]; settings: in DMSO
# Experimental: as §1
# [14] = compound: O=C(O)C(F)(F)C(F)(F)C(F)(F)C(F)(F)C(F)(F)C(F)(F)C(F)(F)C(F)(F)C(F)(F)C(F)F [11-H-Perfluoroundecanoic acid]; settings: in DMSO
# Experimental: as §1
# [15] = compound: O=S(=O)(F)C(F)(F)C(F)(F)C(F)(F)C(F)(F)C(F)(F)C(F)(F)C(F)(F)C(F)(F)F [Perfluorooctanesulfonyl fluoride]; settings: in DMSO
# Experimental: as §1
# Hexafluoroamylene glycol = compound: OCC(F)(F)C(F)(F)C(F)(F)CO [Hexafluoroamylene glycol]; settings: in DMSO
# Experimental: as §1
# Heptafluorobutyl iodide = compound: FC(F)(F)C(F)(F)C(F)(F)CI [Heptafluorobutyl iodide]; settings: in DMSO
# Experimental: as §1
test system,measurement,setting,value
HDF3CGF:MMP-1,level (log10),[1]; 6700 nM,0.0145 ± 0.0064
same,level (log10),[1]; 20000 nM,0.0155 ± 0.0035
same,level (log10),[1]; 60000 nM,-0.0185 ± 0.028
same,level (log10),Nonafluoropentanamide; 6700 nM,0.0065 ± 0.0092
same,level (log10),Nonafluoropentanamide; 20000 nM,0.011 ± 0.0085
same,level (log10),Nonafluoropentanamide; 60000 nM,0.0085 ± 0.012
same,level (log10),[2]; 6700 nM,0.0115 ± 0.011
same,level (log10),[2]; 20000 nM,0.02 ± 0.033
same,level (log10),[3],-0.3945 ± 0.00071
same,level (log10),[4]; 6700 nM,0.0005 ± 0.00071
same,level (log10),[4]; 20000 nM,-0.006 ± 0.0042
same,level (log10),[4]; 60000 nM,0.003 ± 0.0071
same,level (log10),[5]; 6700 nM,-0.0105 ± 0.0021
same,level (log10),[5]; 20000 nM,-0.0285 ± 0.018
same,level (log10),[6]; 6700 nM,0.0265 ± 0.012
same,level (log10),[6]; 20000 nM,0.028 ± 0.0099
same,level (log10),[6]; 60000 nM,0.0355 ± 0.0035
same,level (log10),[7]; 6700 nM,0.001 ± 0.0028
same,level (log10),[7]; 20000 nM,-0.0145 ± 0.0092
same,level (log10),[7]; 60000 nM,0.0075 ± 0.0092
same,level (log10),[8]; 6700 nM,0.0005 ± 0.012
same,level (log10),[8]; 20000 nM,0.008 ± 0.011
same,level (log10),[8]; 60000 nM,0.0005 ± 0.0064
same,level (log10),[9]; 6700 nM,-0.0435 ± 0.019
same,level (log10),[9]; 20000 nM,-0.017 ± 0.0099
same,level (log10),[9]; 60000 nM,0.016 ± 0.028
same,level (log10),[10]; 6700 nM,0.0005 ± 0.0021
same,level (log10),[10]; 20000 nM,0.004 ± 0.0042
same,level (log10),[10]; 60000 nM,0.003 ± 0.0071
same,level (log10),Octafluoroadipamide; 6700 nM,0.0035 ± 0.005
same,level (log10),Octafluoroadipamide; 20000 nM,0.002 ± 0.011
same,level (log10),Octafluoroadipamide; 60000 nM,0.0045 ± 0.012
same,level (log10),[11]; 6700 nM,-0.015 ± 0.027
same,level (log10),[11]; 20000 nM,-0.039 ± 0.03
same,level (log10),[11]; 60000 nM,-0.036 ± 0.064
same,level (log10),[12]; 6700 nM,0.023 ± 0.0085
same,level (log10),[12]; 20000 nM,0.031 ± 0.0028
same,level (log10),[12]; 60000 nM,0.039 ± 0.0057
same,level (log10),[13]; 1500 nM,-0.0125 ± 0.0092
same,level (log10),[13]; 4400 nM,-0.0145 ± 0.0078
same,level (log10),[13]; 13000 nM,-0.007 ± 0.024
same,level (log10),[13]; 40000 nM,0.027 ± 0.024
same,level (log10),[14]; 6700 nM,-0.096 ± 0.034
same,level (log10),[14]; 20000 nM,-0.0815 ± 0.005
same,level (log10),[15]; 6700 nM,0.023 ± 0.03
same,level (log10),[15]; 20000 nM,0.029 ± 0.024
same,level (log10),[15]; 60000 nM,0.006 ± 0.051
same,level (log10),Hexafluoroamylene glycol; 6700 nM,0.004 ± 0.0071
same,level (log10),Hexafluoroamylene glycol; 20000 nM,-0.0015 ± 0.04
same,level (log10),Hexafluoroamylene glycol; 60000 nM,-0.022 ± 0.064
same,level (log10),Heptafluorobutyl iodide; 6700 nM,-0.014 ± 0.028
same,level (log10),Heptafluorobutyl iodide; 20000 nM,-0.0195 ± 0.021
same,level (log10),Heptafluorobutyl iodide; 60000 nM,-0.0255 ± 0.025
HDF3CGF:PAI-I,level (log10),[1]; 6700 nM,-0.0075 ± 0.083
same,level (log10),[1]; 20000 nM,0.081 ± 0.0071
same,level (log10),[1]; 60000 nM,-0.0365 ± 0.037
same,level (log10),Nonafluoropentanamide; 6700 nM,-0.014 ± 0.078
same,level (log10),Nonafluoropentanamide; 20000 nM,0.0005 ± 0.059
same,level (log10),Nonafluoropentanamide; 60000 nM,0.0125 ± 0.019
same,level (log10),[2]; 6700 nM,0.107 ± 0.0099
same,level (log10),[2]; 20000 nM,0.0875 ± 0.00071
same,level (log10),[3],-0.85 ± 0.033
same,level (log10),[4]; 6700 nM,-0.012 ± 0.011
same,level (log10),[4]; 20000 nM,-0.016 ± 0.0099
same,level (log10),[4]; 60000 nM,0 ± 0.038
same,level (log10),[5]; 6700 nM,-0.044 ± 0.0071
same,level (log10),[5]; 20000 nM,-0.064 ± 0.023
same,level (log10),[6]; 6700 nM,-0.0135 ± 0.0035
same,level (log10),[6]; 20000 nM,-0.0175 ± 0.0064
same,level (log10),[6]; 60000 nM,0.009 ± 0.025
same,level (log10),[7]; 6700 nM,-0.001 ± 0.0071
same,level (log10),[7]; 20000 nM,-0.0105 ± 0.013
same,level (log10),[7]; 60000 nM,0 ± 0.033
same,level (log10),[8]; 6700 nM,-0.0085 ± 0.018
same,level (log10),[8]; 20000 nM,-0.0215 ± 0.015
same,level (log10),[8]; 60000 nM,-0.0005 ± 0.032
same,level (log10),[9]; 6700 nM,0.0185 ± 0.0021
same,level (log10),[9]; 20000 nM,0.0435 ± 0.0064
same,level (log10),[9]; 60000 nM,0.0255 ± 0.032
same,level (log10),[10]; 6700 nM,-0.0375 ± 0.019
same,level (log10),[10]; 20000 nM,-0.022 ± 0.033
same,level (log10),[10]; 60000 nM,-0.0115 ± 0.05
same,level (log10),Octafluoroadipamide; 6700 nM,0.018 ± 0.0099
same,level (log10),Octafluoroadipamide; 20000 nM,0.018 ± 0.0014
same,level (log10),Octafluoroadipamide; 60000 nM,0.009 ± 0.0014
same,level (log10),[11]; 6700 nM,0.005 ± 0.0042
same,level (log10),[11]; 20000 nM,-0.0015 ± 0.0035
same,level (log10),[11]; 60000 nM,-0.01 ± 0.011
same,level (log10),[12]; 6700 nM,-0.0695 ± 0.083
same,level (log10),[12]; 20000 nM,-0.057 ± 0.064
same,level (log10),[12]; 60000 nM,-0.0415 ± 0.057
same,level (log10),[13]; 1500 nM,0.0815 ± 0.042
same,level (log10),[13]; 4400 nM,0.159 ± 0.0028
same,level (log10),[13]; 13000 nM,0.129 ± 0.041
same,level (log10),[13]; 40000 nM,0.147 ± 0.038
same,level (log10),[14]; 6700 nM,0.018 ± 0.0099
same,level (log10),[14]; 20000 nM,-0.0045 ± 0.0035
same,level (log10),[15]; 6700 nM,0.0235 ± 0.12
same,level (log10),[15]; 20000 nM,0.035 ± 0.013
same,level (log10),[15]; 60000 nM,0.101 ± 0.033
same,level (log10),Hexafluoroamylene glycol; 6700 nM,0.0045 ± 0.0035
same,level (log10),Hexafluoroamylene glycol; 20000 nM,0.006 ± 0.038
same,level (log10),Hexafluoroamylene glycol; 60000 nM,-0.0145 ± 0.0021
same,level (log10),Heptafluorobutyl iodide; 6700 nM,0.0035 ± 0.043
same,level (log10),Heptafluorobutyl iodide; 20000 nM,-0.004 ± 0.03
same,level (log10),Heptafluorobutyl iodide; 60000 nM,-0.018 ± 0.027
